SMILES strings stand for the structures. pIC50: −log10 of the molar value. Values joined by “and” are separate entries in the source; they are usually repeats but may differ in a detail not shown here. Equal entries are not always repeated.

As usually defined, the pIC50 is −log10 of the IC50, conventionally taken in molar units.

Test [1] deals with human epidermoid carcinoma cell line KB-8511. Nature of the test: Growth inhibition of KB-8511 cells (P-gp170-overexpressing multidrug-resistant subline), 72 h, methylene blue staining. It is filed as cell-based.
Test [2] concerns human epidermoid carcinoma cell line KB-31. The test can be described thus: Growth inhibition of KB-31 cells, 72 h, methylene blue staining. It is filed as cell-based. The following applies: KB-31, 72 h exposure. The protocol:
Determination of IC50 Values Against Human Epidermoid Carcinoma Cell Lines KB-31
Cells are exposed to compounds for 72 h. Cell numbers are estimated by quantification of protein content of fixed cells by methylene blue staining.

Setting [3] is: KB-8511 (P-gp170-overexpressing), 72 h exposure.
[4] abbreviates: KB-8511, 72 h exposure, class symbols.

`COC1=NC2CCCC(C)C(O)C(C)C(=O)C(C)(C)C(O)CC(=O)OC(C(C)=Cc3csc(C)n3)CC2O1` (stereo not shown) [Compound 4e]: the pIC50 was 5.26 in test [1] (setting [3]), under 6.00 in test [1] (setting [4]), 5.90 in test [2] and under 6.00 in test [2] (class symbols).
As for `C/C(=C\c1csc(C)n1)[C@@H]1C[C@@H]2OC(=O)NC2CCCC(C)[C@H](O)C(C)C(=O)C(C)(C)C(O)CC(=O)O1` (stereo partly shown) [Compound 1], the pIC50 in test [1] (Homo sapiens, KB-8511, 72 h exposure, class symbols) is under 6.00; in test [2] (Homo sapiens, KB 3-1, 72 h, class symbols) it was 6.12 to 6.30.
`CC(=Cc1csc(C)n1)C1CC2OC(c3ccncc3)=NC2CCCC(C)C(O)C(C)C(=O)C(C)(C)C(O)CC(=O)O1` (stereo not shown) [Compound 6a]: the pIC50 was 7.08 in test [1] (setting [3]), over 7.00 in test [1] (setting [4]), 7.52 in test [2] and over 7.00 in test [2] (class symbols).
With `CC(=Cc1csc(C)n1)C1CC2OC(c3ccsc3)=NC2CCCC(C)C(O)C(C)C(=O)C(C)(C)C(O)CC(=O)O1` (stereo not shown) [drawing 72], the pIC50 in test [1] (setting [4]) was 6.60 to 7.00; in test [2] (class symbols), over 7.00.
Consider `C/C(=C\c1csc(C)n1)[C@@H]1C[C@@H]2OC(=O)NC2CCCC(C)[C@H](O)C(C)C(=O)C(C)(C)C(O)CC(=O)O1` (stereo partly shown) [Compound 4h], for which the pIC50 is under 5.00 in test [1] (Homo sapiens, KB-8511 (P-gp170-overexpressing), 72 h exposure); 6.21 in test [2] (Homo sapiens, KB 3-1, 72 h); 6.19 in test [2].
On to `CC(=Cc1csc(C)n1)C1CC2OC(c3ccsc3)=NC2CCCC(C)C(O)C(C)C(=O)C(C)(C)C(O)CC(=O)O1` (stereo not shown) [Compound 5l], for which the pIC50 in test [1] (setting [3]) was 6.84; in test [1] (KB-8511, 72 h exposure, class symbols, listed as drawing 62), over 7.00; in test [2] it was 7.38.
Turning to `CCC1=NC2CCCC(C)C(O)C(C)C(=O)C(C)(C)C(O)CC(=O)OC(C(C)=Cc3csc(C)n3)CC2O1` (stereo not shown) [Compound 4b], the pIC50 in test [1] (setting [3]) is 5.26; in test [1] (setting [4]) it was under 6.00; in test [2] it was 5.73; in test [2] (class symbols) it was under 6.00.
For `CCCCC1=NC2CCCC(C)C(O)C(C)C(=O)C(C)(C)C(O)CC(=O)OC(C(C)=Cc3csc(C)n3)CC2O1` (stereo not shown) [Compound 4c], the pIC50 in test [1] (setting [3]) was 6.03 and 6.00; in test [1] (setting [4]), 6.00 to 6.12; in test [2], 6.46 and 6.41; in test [2] (class symbols), 6.30 to 6.60.
For the compound `CC(=Cc1csc(C)n1)C1CC2OC(C)=NC2CCCC(C)C(O)C(C)C(=O)C(C)(C)C(O)CC(=O)O1` (stereo not shown) [Compound 4a], the pIC50 in test [1] (setting [3]), in test [1] (setting [4]), in test [2] and in test [2] (class symbols) was under 6.00 in each case.
For the compound `CC(=Cc1csc(C)n1)C1CC2OC(C(C)(C)C)=NC2CCCC(C)C(O)C(C)C(=O)C(C)(C)C(O)CC(=O)O1` (stereo not shown) [Compound 4d], the pIC50 is 7.26 in test [1] (setting [3]), 6.60 to 7.00 in test [1] (setting [4]), 7.92 in test [2] and 6.60 to 7.00 in test [2] (class symbols).
